Data reported in patent US10800754B2, “Heterocyclic amide compound” (TAKEDA PHARMACEUTICAL COMPANY LIMITED, priority 2016, dated 2020).

What was measured:
human PRS protein = molecular target: T1, human PRS protein (Homo sapiens, UniProt P07814); experiment: PRS inhibitory activity (ATP/[32P]pyrophosphate exchange enzyme reaction); assay type: biochemical; conditions: 300 nM test compound; recombinant human PRS (EPRS 998-1512); read-out: inhibitory rate (%) of PRS
T1 construct: to construct His-Avi-hEPRS (998-1512) expression plasmid; His tag (N); Avi tag (N); TEV cleavage site (ENLYFQ/GS, encoded by forward primer hEPRS-TEV-NheF) (N); made in house; host or cells: E. coli BL21(DE3)
T1 sequence (P07814 998-1512): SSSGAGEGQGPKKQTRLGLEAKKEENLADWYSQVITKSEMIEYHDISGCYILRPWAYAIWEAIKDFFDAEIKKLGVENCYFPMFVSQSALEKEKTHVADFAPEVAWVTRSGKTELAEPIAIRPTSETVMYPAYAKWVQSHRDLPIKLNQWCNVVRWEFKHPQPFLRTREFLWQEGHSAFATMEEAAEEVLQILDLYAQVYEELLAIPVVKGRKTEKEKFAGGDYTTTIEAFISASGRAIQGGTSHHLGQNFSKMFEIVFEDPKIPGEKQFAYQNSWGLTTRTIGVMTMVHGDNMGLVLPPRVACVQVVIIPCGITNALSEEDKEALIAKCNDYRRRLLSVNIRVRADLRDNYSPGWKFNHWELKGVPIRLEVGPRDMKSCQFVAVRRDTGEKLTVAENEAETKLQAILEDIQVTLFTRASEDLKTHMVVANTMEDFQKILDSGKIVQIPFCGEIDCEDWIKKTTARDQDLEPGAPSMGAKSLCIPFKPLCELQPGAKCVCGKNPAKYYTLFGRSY
Summary of the method: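 His-Avi-tagged human EPRS catalytic domain (998-1512), E. coli-expressed, was preincubated 60 min with compound (enzyme added as 40 nM solution) in Tris pH 7.5, KCl, DTT, Tween 20 and MgCl2. The substrate solution contained 300 μM ATP, 160 μM L-proline, and 400 μM pyrophosphate with [32P]pyrophosphate; reaction ran 30 min at room temperature. Charcoal-captured label was counted, with enzyme-free wells taken as 100% inhibition.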

[1] = system: human ovarian cancer cell A2780; experiment: proliferation inhibitory activity against A2780 cells (CellTiter-Glo); assay type: cell-based; conditions: A2780, 72 h, 1 μM test compound, 3 days of culture, read-out: proliferation inhibitory rate (%) of A2780 cells
Method: The proliferation inhibitory activity of the compound of the present invention against human ovarian cancer cell A2780 was evaluated by the following method.
Human ovarian cancer cells A2780 were seeded in a 384 well culture plate at 1000 cells in 30 μL of medium per well by using RPMI-1640 medium (Wako Pure Chemical Industries, Ltd.) containing 10% fetal bovine serum and penicillin/streptomycin. The next day, 10 μL of RPMI-1640 medium containing the test compound was added to the cells. After 3 days of culture, 20 μL of CellTiter-Glo Luminescent Cell Viability Assay solution (Promega, Fitchburg, Wis., US) was added. The luminescence signal was measured using EnVision (PerkinElmer, Waltham, Mass., US) and the inhibitory rate (%) of the test compound was calculated with a well free of seeding of cell as 100% inhibition.

Row | Structure (SMILES) | inhibition at 0.3 µM (human PRS protein) [%] | inhibition at 1 µM [1] [%]
1 | CCn1cc(-c2cccc(CC(=O)Nc3cc(N4CC[C@@](C#N)(C5CC5)C4=O)ccn3)c2)cn1 [Example 37, N-(4-((3S)-3-cyano-3-cyclopropyl-2-oxopyrrolidin-1-yl)pyridin-2-yl)-2-(3-(1-ethyl-1H-pyrazol-4-yl)phenyl)acetamide] | 99 | 90
2 | Cn1cc(-c2cccc(CC(=O)Nc3cc(N4CC[C@@](C#N)(C5CC5)C4=O)ccn3)c2)ccc1=O [Example 41, N-(4-((3S)-3-cyano-3-cyclopropyl-2-oxopyrrolidin-1-yl)pyridin-2-yl)-2-(3-(1-methyl-6-oxo-1,6-dihydropyridin-3-yl)phenyl)acetamide] | 101 | 72
3 | Cc1cc(N2CC[C@@](C#N)(C3CC3)C2=O)cc(NC(=O)Cc2cc(F)cc(-c3cnn(C)c3)c2)n1 [Example 52, N-(4-((3S)-3-cyano-3-cyclopropyl-2-oxopyrrolidin-1-yl)-6-methylpyridin-2-yl)-2-(3-fluoro-5-(1-methyl-1H-pyrazol-4-yl)phenyl)acetamide] | 99 | 97
4 | Cc1cc(N2CC[C@@](C#N)(C3CC3)C2=O)cc(NC(=O)Cc2cccc(-c3cnn(C)c3C)c2)n1 [Example 98, N-(4-((3S)-3-cyano-3-cyclopropyl-2-oxopyrrolidin-1-yl)-6-methylpyridin-2-yl)-2-(3-(1,5-dimethyl-1H-pyrazol-4-yl)phenyl)acetamide] | 98 | 69
5 | N#C[C@@]1(C2CC2)CCN(c2ccnc(NC(=O)Cc3cccc(-c4cnn(CC(F)(F)F)c4)c3)c2)C1=O [Example 58, N-(4-((3S)-3-cyano-3-cyclopropyl-2-oxopyrrolidin-1-yl)pyridin-2-yl)-2-(3-(1-(2,2,2-trifluoroethyl)-1H-pyrazol-4-yl)phenyl)acetamide] | 99 | 75
6 | Cn1ccc(-c2cccc(CC(=O)Nc3cc(N4CC[C@@](C#N)(C5CC5)C4=O)ccn3)c2)cc1=O [Example 51, N-(4-((3S)-3-cyano-3-cyclopropyl-2-oxopyrrolidin-1-yl)pyridin-2-yl)-2-(3-(1-methyl-2-oxo-1,2-dihydropyridin-4-yl)phenyl)acetamide] | 99 | 52
7 | Cc1cc(N2CC[C@@](C#N)(C3CC3)C2=O)nc(NC(=O)Cc2cccc(-c3cnn(C)c3)c2)n1 [Example 132, N-(4-((3S)-3-cyano-3-cyclopropyl-2-oxopyrrolidin-1-yl)-6-methylpyrimidin-2-yl)-2-(3-(1-methyl-1H-pyrazol-4-yl)phenyl)acetamide] | 98 | 73
8 | N#C[C@@]1(C2CC2)CCN(c2ccnc(NC(=O)Cc3cccc(-c4cnn(CC5CCCCO5)c4)c3)c2)C1=O (stereo partly drawn) [Example 83, N-(4-((3S)-3-cyano-3-cyclopropyl-2-oxopyrrolidin-1-yl)pyridin-2-yl)-2-(3-(1-(tetrahydro-2H-pyran-2-ylmethyl)-1H-pyrazol-4-yl)phenyl)acetamide] | 99 | 58
9 | CC(C)n1cc(-c2cccc(CC(=O)Nc3cc(N4CC[C@@](C#N)(C5CC5)C4=O)ccn3)c2)cn1 [Example 93, N-(4-((3S)-3-cyano-3-cyclopropyl-2-oxopyrrolidin-1-yl)pyridin-2-yl)-2-(3-(1-isopropyl-1H-pyrazol-4-yl)phenyl)acetamide] | 100 | 76
10 | CC1(Cn2cc(-c3cccc(CC(=O)Nc4cc(N5CC[C@@](C#N)(C6CC6)C5=O)ccn4)c3)cn2)COC1 [Example 77, N-(4-((3S)-3-cyano-3-cyclopropyl-2-oxopyrrolidin-1-yl)pyridin-2-yl)-2-(3-(1-((3-methyloxetan-3-yl)methyl)-1H-pyrazol-4-yl)phenyl)acetamide] | 98 | 63
11 | N#C[C@@]1(C2CC2)CCN(c2ccnc(NC(=O)Cc3cccc(-c4cnn(C5CCOC5)c4)c3)c2)C1=O (stereo partly drawn) [Example 94, N-(4-((3S)-3-cyano-3-cyclopropyl-2-oxopyrrolidin-1-yl)pyridin-2-yl)-2-(3-(1-(tetrahydrofuran-3-yl)-1H-pyrazol-4-yl)phenyl)acetamide] | 100 | 74
12 | N#C[C@@]1(C2CC2)CCN(c2ccnc(NC(=O)Cc3cccc(-c4ccncc4)c3)c2)C1=O [Example 29, N-(4-((3S)-3-cyano-3-cyclopropyl-2-oxopyrrolidin-1-yl)pyridin-2-yl)-2-(3-(pyridin-4-yl)phenyl)acetamide] | 97 | 60
13 | CC(C)(O)CCn1cc(-c2cccc(CC(=O)Nc3cc(N4CC[C@@](C#N)(C5CC5)C4=O)ccn3)c2)cn1 [Example 100, N-(4-((3S)-3-cyano-3-cyclopropyl-2-oxopyrrolidin-1-yl)pyridin-2-yl)-2-(3-(1-(3-hydroxy-3-methylbutyl)-1H-pyrazol-4-yl)phenyl)acetamide] | 101 | 84
14 | CC(C)Cn1cc(-c2cccc(CC(=O)Nc3cc(N4CC[C@@](C#N)(C5CC5)C4=O)ccn3)c2)cn1 [Example 68, N-(4-((3S)-3-cyano-3-cyclopropyl-2-oxopyrrolidin-1-yl)pyridin-2-yl)-2-(3-(1-isobutyl-1H-pyrazol-4-yl)phenyl)acetamide] | 98 | 51
15 | N#C[C@@]1(C2CC2)CCN(c2ccnc(NC(=O)Cc3cccc(-c4cnn(CC5CC5)c4)c3)c2)C1=O [Example 64, N-(4-((3S)-3-cyano-3-cyclopropyl-2-oxopyrrolidin-1-yl)pyridin-2-yl)-2-(3-(1-(cyclopropylmethyl)-1H-pyrazol-4-yl)phenyl)acetamide] | 99 | 79
16 | N#C[C@@]1(C2CC2)CCN(c2ccnc(NC(=O)Cc3cccc(-c4cnn(C5CCCC5)c4)c3)c2)C1=O [Example 66, N-(4-((3S)-3-cyano-3-cyclopropyl-2-oxopyrrolidin-1-yl)pyridin-2-yl)-2-(3-(1-cyclopentyl-1H-pyrazol-4-yl)phenyl)acetamide] | 99 | 80
17 | N#CCCCn1cc(-c2cccc(CC(=O)Nc3cc(N4CC[C@@](C#N)(C5CC5)C4=O)ccn3)c2)cn1 [Example 71, N-(4-((3S)-3-cyano-3-cyclopropyl-2-oxopyrrolidin-1-yl)pyridin-2-yl)-2-(3-(1-(3-cyanopropyl)-1H-pyrazol-4-yl)phenyl)acetamide] | 99 | 69
18 | Cn1cc(-c2cccc(CC(=O)Nc3cc(N4CC[C@@](C#N)(C5CC5)C4=O)cc(F)n3)c2)cn1 [Example 63, N-(4-((3S)-3-cyano-3-cyclopropyl-2-oxopyrrolidin-1-yl)-6-fluoropyridin-2-yl)-2-(3-(1-methyl-1H-pyrazol-4-yl)phenyl)acetamide] | 99 | 88
19 | Cc1ncc(-c2cccc(CC(=O)Nc3cc(N4CC[C@@](C#N)(C5CC5)C4=O)ccn3)c2)s1 [Example 45, N-(4-((3S)-3-cyano-3-cyclopropyl-2-oxopyrrolidin-1-yl)pyridin-2-yl)-2-(3-(2-methyl-1,3-thiazol-5-yl)phenyl)acetamide] | 97 | 76
20 | Cc1cc(-c2cccc(CC(=O)Nc3cc(N4CC[C@@](C#N)(C5CC5)C4=O)ccn3)c2)sn1 [Example 48, N-(4-((3S)-3-cyano-3-cyclopropyl-2-oxopyrrolidin-1-yl)pyridin-2-yl)-2-(3-(3-methyl-1,2-thiazol-5-yl)phenyl)acetamide] | 100 | 61
21 | Cc1cc(N2CC[C@@](C#N)(C3CC3)C2=O)cc(NC(=O)Cc2cccc3ccccc23)n1 [Example 27, N-(4-((3S)-3-cyano-3-cyclopropyl-2-oxopyrrolidin-1-yl)-6-methylpyridin-2-yl)-2-(1-naphthyl)acetamide] | 97 | 74
22 | N#C[C@@]1(C2CC2)CCN(c2ccnc(NC(=O)Cc3cccc(-c4cnn(C5CC5)c4)c3)c2)C1=O [Example 42, N-(4-((3S)-3-cyano-3-cyclopropyl-2-oxopyrrolidin-1-yl)pyridin-2-yl)-2-(3-(1-cyclopropyl-1H-pyrazol-4-yl)phenyl)acetamide] | 100 | 84
